# From patent US20230348418A1, “ISOINDOLINONE COMPOUNDS” (Monte Rosa Therapeutics, Inc., priority 2021, published 2023)
# pIC50: −log10 of the molar value. Where two headings read alike, the source gives them in different places.
# What was measured:
# [1] = biological target: T1, Full length wild-type cereblon CRBN (Homo sapiens, UniProt Q96SW2); assay: Fluorescence polarization (FP) assay, cereblon binding
# T1 construct: Full length wild-type cereblon CRBN (80.0 nM, 10 μL) was incubated in assay buffer
# How it was run: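 Full-length wild-type human CRBN (80.0 nM) was preincubated with compound for 30 min at room temperature in 20 mM HEPES pH 8.0, 150 NaCl, 0.5 mM TCEP and 0.05% Tween 20. A Cy5-type thalidomide-linked fluorescent probe was then added. The FP signal was normalized to the DMSO control to derive IC50.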
# GSPT1 [2] = biological target: T2, GSPT1 (Homo sapiens, UniProt P15170+Q96SW2); assay: Immunofluorescence assay for GSPT1 degradation in CAL-51 cells (Example 4); format: cell-based; parameters: host or cells: CAL-51
# Protocol: The representative compounds were tested in an immunofluorescence assay for their activity to bind to degrade GSPT1. […] Compounds were stored at 10 mM DMSO stocks. […] Cells were subsequently rinsed with PBS and fixed in 10% Formalin solution (50 μl, Sigma HT5011)) for 20 mins at room temperature. […] Following three further PBS washes, […] blocking buffer (1% BSA, Sigma A4503, in PBS) was added for 45 min for signal-to-noise reduction.
# Primary antibody (human GSPT1, Sigma HPA052488) was diluted in blocking buffer (dil.1/300, 35 μl/well) and incubated with the cells overnight at 4° C. […] After three final PBS washes, samples were conserved in 100 μl PBS in the dark, until measurement. Image acquisition was performed on the Operetta High-Content Imager (Perkin-Elmer). […] For the determination of GSPT1 DC50 values, a custom algorithm implemented in the PerkinElmer image analysis software Harmony-Acapella® was developed. After user-defined setting of adjustment parameters, the analysis was run identically without human intervention for all image fields. DAPI staining of the nuclei was used to determine the location of cells using standard nuclei detection modules. Segmentation artifacts were removed by threshold-based filters for area, roundness and intensity. The outline of the cells was determined analogously from the sum of the normalized, smoothed DAPI and Actin channel, starting from each nucleus.
# GSPT1 degradation (DC50) was calculated after normalization to controls and data import in CDD vault Database, using non-linear regression.
# IKZF3 (Aiolos) = biological target: T3, IKZF3 (Aiolos) (Homo sapiens, UniProt Q9UKT9); assay: Western blot selectivity assay in MM1S cells: IKZF3; format: cell-based; parameters: key: A represents a no degradation observed at 30 μM; B represents trace degradation at 30 μM (below 20%); C represents weak degradation at 30 μM (below 50%); D represents degradation at 30 μM (>90%); E represents degradation at 3 μM (>90%); F represents degradation at 0.3 μM (>90%); details: MM1S cells, 0.3, 3 and 30 μM, 6 hours
# T3 construct: endogenous in cells; host or cells: MM1S (ATCC CRL-2974)
# Protocol: MM1S cells were purchased from ATCC (cat. Number CRL-2974), sub-cultured in 90% RPMI 1640 with 10% FBS, supplemented with 1×P/S and incubated at 37° C., 5% CO2. Compounds were stored as 10 mM DMSO stock. For the assay, MM1S cells (3 million cells/well) were plated in 6-well plates and incubated over night. Cells were treated with respective compounds using a serial dilution: 0.3 μM, 3 μM and 30 μM as well as a vehicle only (DMSO) control for 6 hours. Media with suspension cells was subsequently transferred to 15 mL conical tubes, wells rinsed twice with ice-cold PBS and merged with cell suspension in respective 15 mL conical tube. Cells were spinned down, supernatant aspirated, pellets resuspended in ice-cold PBS and transferred to microtubes. Cells were spinned down, supernatant aspirated and pellets resuspended in 120 μL RIPA lysis buffer supplemented with protease and phosphatase inhibitors. Cell lysates were incubated on ice for 20 minutes followed by centrifugation at >20,000×g for 5 min. Supernatants were transferred to fresh microtubes and stored at −80° C. Total protein concentration was determined using a BCA assay with a BSA standard curve and concentration of all samples was adjusted to 1 mg/mL. 25 μL 4×LDS sample buffer supplemented with 100 mM DTT was added to 75 μL sample. Samples were centrifuged (8,000×g, 1 min) and incubated at 95° C. for 5 min followed by another centrifugation step (8,000×g, 1 min). 20 μL of each sample was loaded on a 4-12% gel alongside a protein molecular weight marker. Gels were run in the presence of MOPS buffer at 80 Volts for 30 min, followed by 120 Volts for 1.5 h and proteins subsequently transferred onto nitrocellulose membranes at 20 Volts for 7 min using an iBlot2 Gel Transfer Device. Membranes were then cut horizontally into two pieces, covering 80-50 kDa and 50-25 kDa. Blocking the membranes was performed by gently shaking in 5% (w/v) skim milk in TSB-T for 1 hr at room temperature. All primary antibodies were used at a 1/1000 in 5% (w/v) BSA dissolved in TBST and incubated with membranes over night at 4° C. Anti-IKZF1 (Ikaros; D6N9Y; 14859S), anti-IKZF3 (Aiolos; D1C1E; 15103S) antibodies were purchased from Cell Signalling Technology, anti-ZFP91 antibody from Bethyl laboratories, anti-GSPT1 from Sigma Aldrich (HPA052488) and anti CK1alpha from AbCam (ab206652). After three washes with 1×TBST for 5 min, HRP-coupled secondary antibodies diluted in 5% (w/v) BSA/TBST (Goat Anti-Rb IgG, dil. 1/10,000; Goat Anti-Mouse IgG, dil. 1/5000) were added for 1 hr at room temperature. […] Chemiluminescence signals were then detected using a LAS-4000 system with default settings and signals quantified using Image Studio Lite software (version 5.2). […]
# IKZF1 (Ikaros) = biological target: T4, IKZF1 (Ikaros) (Homo sapiens, UniProt Q13422); assay: Western blot selectivity assay in MM1S cells: IKZF1; format: cell-based; parameters: key: A represents a no degradation observed at 30 μM; B represents trace degradation at 30 μM (below 20%); C represents weak degradation at 30 μM (below 50%); D represents degradation at 30 μM (>90%); E represents degradation at 3 μM (>90%); F represents degradation at 0.3 μM (>90%); details: MM1S cells, 0.3, 3 and 30 μM, 6 hours
# T4 construct: endogenous in cells; host or cells: MM1S (ATCC CRL-2974)
# Protocol: (§1) MM1S cells were purchased from ATCC (cat. Number CRL-2974), sub-cultured in 90% RPMI 1640 with 10% FBS, supplemented with 1×P/S and incubated at 37° C., 5% CO2. Compounds were stored as 10 mM DMSO stock. For the assay, MM1S cells (3 million cells/well) were plated in 6-well plates and incubated over night. Cells were treated with respective compounds using a serial dilution: 0.3 μM, 3 μM and 30 μM as well as a vehicle only (DMSO) control for 6 hours. Media with suspension cells was subsequently transferred to 15 mL conical tubes, wells rinsed twice with ice-cold PBS and merged with cell suspension in respective 15 mL conical tube. Cells were spinned down, supernatant aspirated, pellets resuspended in ice-cold PBS and transferred to microtubes. Cells were spinned down, supernatant aspirated and pellets resuspended in 120 μL RIPA lysis buffer supplemented with protease and phosphatase inhibitors. Cell lysates were incubated on ice for 20 minutes followed by centrifugation at >20,000×g for 5 min. Supernatants were transferred to fresh microtubes and stored at −80° C. Total protein concentration was determined using a BCA assay with a BSA standard curve and concentration of all samples was adjusted to 1 mg/mL. 25 μL 4×LDS sample buffer supplemented with 100 mM DTT was added to 75 μL sample. Samples were centrifuged (8,000×g, 1 min) and incubated at 95° C. for 5 min followed by another centrifugation step (8,000×g, 1 min). 20 μL of each sample was loaded on a 4-12% gel alongside a protein molecular weight marker. Gels were run in the presence of MOPS buffer at 80 Volts for 30 min, followed by 120 Volts for 1.5 h and proteins subsequently transferred onto nitrocellulose membranes at 20 Volts for 7 min using an iBlot2 Gel Transfer Device. Membranes were then cut horizontally into two pieces, covering 80-50 kDa and 50-25 kDa. Blocking the membranes was performed by gently shaking in 5% (w/v) skim milk in TSB-T for 1 hr at room temperature. All primary antibodies were used at a 1/1000 in 5% (w/v) BSA dissolved in TBST and incubated with membranes over night at 4° C. Anti-IKZF1 (Ikaros; D6N9Y; 14859S), anti-IKZF3 (Aiolos; D1C1E; 15103S) antibodies were purchased from Cell Signalling Technology, anti-ZFP91 antibody from Bethyl laboratories, anti-GSPT1 from Sigma Aldrich (HPA052488) and anti CK1alpha from AbCam (ab206652). After three washes with 1×TBST for 5 min, HRP-coupled secondary antibodies diluted in 5% (w/v) BSA/TBST (Goat Anti-Rb IgG, dil. 1/10,000; Goat Anti-Mouse IgG, dil. 1/5000) were added for 1 hr at room temperature. After three washes with 1×TBST (5 minutes each), membranes were incubated with ECL reagent for 1 min at room temperature. Chemiluminescence signals were then detected using a LAS-4000 system with default settings and signals quantified using Image Studio Lite software (version 5.2). Membrane parts previously incubated with antibody against CK1alpha were stripped off antibodies by incubating with stripping buffer for 30 minutes followed by three washed with TBST (5 min each), blocking with 5% (w/v) skim milk for 1 hr, and incubation with primary antibody against GAPDH overnight at 4° C. Subsequent washes, incubation with secondary antibody and signal acquisition were performed as described above.
# GSPT1 [3] = biological target: T2, GSPT1; assay: Western blot selectivity assay in MM1S cells: GSPT1; format: cell-based; parameters: endogenous in cells; host or cells: MM1S (ATCC CRL-2974); details: MM1S cells, 0.3, 3 and 30 μM, 6 hours
# Protocol: as §1
# CK1alpha = biological target: T5, CK1alpha (Homo sapiens, UniProt P48729); assay: Western blot selectivity assay in MM1S cells: CK1alpha; format: cell-based; parameters: key: A represents a no degradation observed at 30 μM; B represents trace degradation at 30 μM (below 20%); C represents weak degradation at 30 μM (below 50%); D represents degradation at 30 μM (>90%); E represents degradation at 3 μM (>90%); F represents degradation at 0.3 μM (>90%); details: MM1S cells, 0.3, 3 and 30 μM, 6 hours
# T5 construct: endogenous in cells; host or cells: MM1S (ATCC CRL-2974)
# Protocol: MM1S cells were purchased from ATCC (cat. Number CRL-2974), sub-cultured in 90% RPMI 1640 with 10% FBS, supplemented with 1×P/S and incubated at 37° C., 5% CO2. Compounds were stored as 10 mM DMSO stock. For the assay, MM1S cells (3 million cells/well) were plated in 6-well plates and incubated over night. Cells were treated with respective compounds using a serial dilution: 0.3 μM, 3 μM and 30 μM as well as a vehicle only (DMSO) control for 6 hours. Media with suspension cells was subsequently transferred to 15 mL conical tubes, wells rinsed twice with ice-cold PBS and merged with cell suspension in respective 15 mL conical tube. Cells were spinned down, supernatant aspirated, pellets resuspended in ice-cold PBS and transferred to microtubes. Cells were spinned down, supernatant aspirated and pellets resuspended in 120 μL RIPA lysis buffer supplemented with protease and phosphatase inhibitors. Cell lysates were incubated on ice for 20 minutes followed by centrifugation at >20,000×g for 5 min. Supernatants were transferred to fresh microtubes and stored at −80° C. Total protein concentration was determined using a BCA assay with a BSA standard curve and concentration of all samples was adjusted to 1 mg/mL. […] Chemiluminescence signals were then detected using a LAS-4000 system with default settings and signals quantified using Image Studio Lite software (version 5.2). […]
# [4] = bounds stated in the text lists b2059-b2061, read-out: IC50 value
# [5] = cereblon binding, class code, read-out: rFP IC50
# [6] = CAL-51 cells, 6 hours, read-out: Code (activity for GSPT1 degradation, DC50)
# [7] = compounds with code A, read-out: DC50 value
# T2 sequence (P15170 whole entry): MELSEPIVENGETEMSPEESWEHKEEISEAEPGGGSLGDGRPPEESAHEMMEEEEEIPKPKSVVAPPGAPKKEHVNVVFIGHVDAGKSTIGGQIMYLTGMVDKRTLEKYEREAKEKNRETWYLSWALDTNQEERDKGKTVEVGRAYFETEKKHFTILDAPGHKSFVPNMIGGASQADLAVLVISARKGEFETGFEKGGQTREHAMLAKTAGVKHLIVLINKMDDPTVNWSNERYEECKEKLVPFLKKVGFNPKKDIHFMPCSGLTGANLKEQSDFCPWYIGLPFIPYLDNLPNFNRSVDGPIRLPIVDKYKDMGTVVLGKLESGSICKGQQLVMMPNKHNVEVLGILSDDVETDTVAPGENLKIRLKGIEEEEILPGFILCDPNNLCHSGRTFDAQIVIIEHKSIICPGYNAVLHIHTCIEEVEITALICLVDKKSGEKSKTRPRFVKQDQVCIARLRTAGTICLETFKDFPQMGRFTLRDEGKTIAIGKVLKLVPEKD
# T2 sequence (Q96SW2 whole entry): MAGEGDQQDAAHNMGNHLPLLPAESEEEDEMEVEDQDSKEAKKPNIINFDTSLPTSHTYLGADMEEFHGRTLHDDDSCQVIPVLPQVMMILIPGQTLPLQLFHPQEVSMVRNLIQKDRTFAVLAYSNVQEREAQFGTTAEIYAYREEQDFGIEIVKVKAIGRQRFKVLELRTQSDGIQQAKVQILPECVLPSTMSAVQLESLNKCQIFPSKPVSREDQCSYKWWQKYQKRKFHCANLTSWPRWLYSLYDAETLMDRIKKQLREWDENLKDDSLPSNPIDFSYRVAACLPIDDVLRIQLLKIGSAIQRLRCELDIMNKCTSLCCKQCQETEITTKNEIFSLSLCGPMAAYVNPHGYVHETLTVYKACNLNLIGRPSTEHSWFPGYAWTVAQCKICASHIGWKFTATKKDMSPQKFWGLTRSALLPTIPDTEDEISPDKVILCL
# T2 sequence (Q16531 2-1140 partner limits assumed): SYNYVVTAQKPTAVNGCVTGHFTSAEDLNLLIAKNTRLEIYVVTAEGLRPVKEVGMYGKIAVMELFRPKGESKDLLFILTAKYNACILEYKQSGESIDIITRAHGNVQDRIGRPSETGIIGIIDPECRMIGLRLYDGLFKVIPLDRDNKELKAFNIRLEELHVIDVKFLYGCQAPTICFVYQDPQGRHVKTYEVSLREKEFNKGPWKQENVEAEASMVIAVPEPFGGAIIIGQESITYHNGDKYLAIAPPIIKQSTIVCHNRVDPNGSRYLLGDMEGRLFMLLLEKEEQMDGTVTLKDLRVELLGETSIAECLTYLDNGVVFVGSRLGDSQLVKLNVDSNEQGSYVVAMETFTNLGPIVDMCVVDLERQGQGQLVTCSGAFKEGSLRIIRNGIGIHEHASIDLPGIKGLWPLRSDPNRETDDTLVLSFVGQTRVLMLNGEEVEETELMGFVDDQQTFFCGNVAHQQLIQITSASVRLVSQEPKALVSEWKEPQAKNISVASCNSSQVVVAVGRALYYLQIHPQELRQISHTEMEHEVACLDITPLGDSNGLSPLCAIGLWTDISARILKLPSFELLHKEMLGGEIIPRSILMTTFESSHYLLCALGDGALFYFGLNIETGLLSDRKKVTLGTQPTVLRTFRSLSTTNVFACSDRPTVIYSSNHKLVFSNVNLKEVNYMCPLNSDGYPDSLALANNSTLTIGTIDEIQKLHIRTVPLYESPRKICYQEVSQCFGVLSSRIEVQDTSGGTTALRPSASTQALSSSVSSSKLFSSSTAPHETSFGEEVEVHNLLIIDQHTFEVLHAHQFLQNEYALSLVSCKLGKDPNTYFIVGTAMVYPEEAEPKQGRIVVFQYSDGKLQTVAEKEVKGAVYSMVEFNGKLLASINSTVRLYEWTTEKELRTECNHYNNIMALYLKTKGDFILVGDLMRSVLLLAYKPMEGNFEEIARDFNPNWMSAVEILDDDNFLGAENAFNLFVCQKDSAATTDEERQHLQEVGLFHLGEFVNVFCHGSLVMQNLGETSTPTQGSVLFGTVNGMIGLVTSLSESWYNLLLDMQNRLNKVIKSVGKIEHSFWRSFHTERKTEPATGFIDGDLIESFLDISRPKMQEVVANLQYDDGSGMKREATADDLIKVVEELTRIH
# T1 sequence (Q96SW2 whole entry): as the sequence (Q96SW2 whole entry) above
# T4 sequence (Q96SW2 whole entry partner): as the sequence (Q96SW2 whole entry) above
# T4 sequence (Q16531 2-1140 partner limits assumed): as the sequence (Q16531 2-1140 partner limits assumed) above
# T4 sequence (Q13422 whole entry): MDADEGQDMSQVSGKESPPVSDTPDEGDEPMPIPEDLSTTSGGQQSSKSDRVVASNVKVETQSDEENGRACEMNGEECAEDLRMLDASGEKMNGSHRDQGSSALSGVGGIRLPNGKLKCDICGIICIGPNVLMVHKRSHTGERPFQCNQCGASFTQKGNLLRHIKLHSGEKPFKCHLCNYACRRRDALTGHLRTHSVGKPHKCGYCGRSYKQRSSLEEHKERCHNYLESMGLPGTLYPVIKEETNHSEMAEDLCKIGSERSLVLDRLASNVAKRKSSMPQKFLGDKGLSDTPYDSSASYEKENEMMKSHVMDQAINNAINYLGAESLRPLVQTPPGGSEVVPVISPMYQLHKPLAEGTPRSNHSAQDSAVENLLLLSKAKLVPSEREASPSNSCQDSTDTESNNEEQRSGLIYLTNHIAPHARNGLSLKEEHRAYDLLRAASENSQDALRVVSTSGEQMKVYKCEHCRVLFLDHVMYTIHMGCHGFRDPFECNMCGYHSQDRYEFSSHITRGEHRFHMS
# T3 sequence (Q96SW2 whole entry partner): as the sequence (Q96SW2 whole entry) above
# T3 sequence (Q16531 2-1140 partner limits assumed): as the sequence (Q16531 2-1140 partner limits assumed) above
# T3 sequence (Q9UKT9 whole entry): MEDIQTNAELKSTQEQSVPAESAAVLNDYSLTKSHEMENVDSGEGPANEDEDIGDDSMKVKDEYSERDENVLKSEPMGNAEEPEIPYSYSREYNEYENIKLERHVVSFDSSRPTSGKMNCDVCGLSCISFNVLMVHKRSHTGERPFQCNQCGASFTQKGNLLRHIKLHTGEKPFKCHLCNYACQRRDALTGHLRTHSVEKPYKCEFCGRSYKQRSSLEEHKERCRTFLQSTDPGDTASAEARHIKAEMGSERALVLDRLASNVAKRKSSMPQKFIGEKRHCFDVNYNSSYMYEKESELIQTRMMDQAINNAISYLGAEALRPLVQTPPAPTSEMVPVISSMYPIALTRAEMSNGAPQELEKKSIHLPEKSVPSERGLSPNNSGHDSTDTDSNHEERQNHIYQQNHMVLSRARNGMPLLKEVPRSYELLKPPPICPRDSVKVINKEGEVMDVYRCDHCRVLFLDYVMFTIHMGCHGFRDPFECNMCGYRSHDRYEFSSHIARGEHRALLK
# T5 sequence (Q96SW2 whole entry partner): as the sequence (Q96SW2 whole entry) above
# T5 sequence (Q16531 2-1140 partner limits assumed): as the sequence (Q16531 2-1140 partner limits assumed) above
# T5 sequence (P48729 whole entry): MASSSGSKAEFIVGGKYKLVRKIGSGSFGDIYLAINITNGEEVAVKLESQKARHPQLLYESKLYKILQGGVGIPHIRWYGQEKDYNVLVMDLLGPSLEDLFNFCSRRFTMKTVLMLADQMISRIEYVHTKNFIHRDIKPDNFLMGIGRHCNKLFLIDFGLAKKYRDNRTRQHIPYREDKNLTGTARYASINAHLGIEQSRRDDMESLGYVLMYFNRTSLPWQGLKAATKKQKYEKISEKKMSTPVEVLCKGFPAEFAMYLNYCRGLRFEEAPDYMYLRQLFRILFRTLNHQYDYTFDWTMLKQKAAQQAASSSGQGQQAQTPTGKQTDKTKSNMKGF
Structure (SMILES),"pIC50 [1, 4]","pIC50 [1, 5]",DC50 (GSPT1 [2]; [6]),DC50 (GSPT1 [2]; [7]),"pIC50 ([1]; IC50 value, bounds stated in the text lists b2059-b2061)","IC50 ([1]; rFP IC50 [nM], cereblon binding, class code)","DC50 (GSPT1 [2]; read-out: Code (activity for GSPT1 degradation, DC50), CAL-51 cells, 6 hours)",IKZF3 degradation (IKZF3 (Aiolos)),IKZF1 degradation (IKZF1 (Ikaros)),GSPT1 degradation (GSPT1 [3]),CK1alpha degradation (CK1alpha)
O=C1CCC(N2Cc3ccc(COC(=O)Nc4cccc(OC5CC5(F)F)c4)cc3C2=O)C(=O)N1 (stereo not shown) [Compound 140],> 5.96,5.96 to 6.30,< 30 nM,≤ 30 nM,–,–,–,–,–,–,–
"O=C1CCC(N2Cc3ccc(COC(=O)Nc4ccc(C5(F)CC5)cc4)cc3C2=O)C(=O)N1 (stereo not shown) [Compound 115, (2-(2,6-dioxopiperidin-3-yl)-3-oxoisoindolin-5-yl)methyl(4-(1-fluorocyclopropyl)phenyl) carbamate]",> 6.30,> 6.30,30 to 300 nM,–,–,–,–,–,–,–,–
"Cc1c(Cl)cc(NC(=O)OCc2ccc3c(c2)C(=O)N(C2CCC(=O)NC2=O)C3)cc1CC1COCCN1C (stereo not shown) [Compound 150, (2-(2,6-dioxopiperidin-3-yl)-3-oxoisoindolin-5-yl) methyl(3-chloro-4-methyl-5-((4-methylmorpholin-3-yl)methyl)phenyl)carbamate]",–,–,–,≤ 30 nM,> 5.77,1100 to 1700 nM,< 30 nM,–,–,–,–
O=C1CCC(N2Cc3ccc(COC(=O)Nc4ccc(-c5ccccc5)nc4)cc3C2=O)C(=O)N1 (stereo not shown) [Compound 42],–,–,–,–,–,–,–,A,A,F (F represents degradation at 0.3 μM (>90%)),–
O=C1CCC(N2Cc3ccc(COC(=O)Nc4cccc(OC(F)(F)F)c4)cc3C2=O)C(=O)N1 (stereo not shown) [Compound 3],> 5.77,5.77 to 5.96,–,–,–,–,–,A,A,F (F represents degradation at 0.3 μM (>90%)),–
Cc1ncc(NC(=O)OCc2ccc3c(c2)C(=O)N(C2CCC(=O)NC2=O)C3)cc1Cl (stereo not shown) [Compound 6],> 5.77,5.96 to 6.30,–,–,–,–,–,–,A,F (F represents degradation at 0.3 μM (>90%)),A
O=C1CCC(N2Cc3ccc(COC(=O)Nc4ccc(N5CCCCC5)nc4)cc3C2=O)C(=O)N1 (stereo not shown) [Compound 15],> 5.77,5.96 to 6.30,–,–,–,–,–,–,A,F (F represents degradation at 0.3 μM (>90%)),–
